Reference: patent publication US8415469B2, “Compounds and methods for kinase modulation, and indications therefor” (Plexxikon Inc., priority 2005, dated 2013)

Assays:
Assay type in all cases: biochemical
Kit = target: T1, Kit (Homo sapiens, UniProt P10721); assay: AlphaScreen kinase assay, Kit; conditions: read-out: IC50, activity toward kinase Kit
T1 construct: P1332.N6 BI PTP KIT M552-K948-X COD; His6 (N); made in house; host or cells: E. coli (PTP1B co-expressed)

Fms = target: T2, Fms (Homo sapiens, UniProt P07333); assay: AlphaScreen kinase assay, Fms; conditions: read-out: IC50, activity toward kinase Fms
T2 construct: purchased Upstate Biotechnology
T2 sequence (P07333 20-972): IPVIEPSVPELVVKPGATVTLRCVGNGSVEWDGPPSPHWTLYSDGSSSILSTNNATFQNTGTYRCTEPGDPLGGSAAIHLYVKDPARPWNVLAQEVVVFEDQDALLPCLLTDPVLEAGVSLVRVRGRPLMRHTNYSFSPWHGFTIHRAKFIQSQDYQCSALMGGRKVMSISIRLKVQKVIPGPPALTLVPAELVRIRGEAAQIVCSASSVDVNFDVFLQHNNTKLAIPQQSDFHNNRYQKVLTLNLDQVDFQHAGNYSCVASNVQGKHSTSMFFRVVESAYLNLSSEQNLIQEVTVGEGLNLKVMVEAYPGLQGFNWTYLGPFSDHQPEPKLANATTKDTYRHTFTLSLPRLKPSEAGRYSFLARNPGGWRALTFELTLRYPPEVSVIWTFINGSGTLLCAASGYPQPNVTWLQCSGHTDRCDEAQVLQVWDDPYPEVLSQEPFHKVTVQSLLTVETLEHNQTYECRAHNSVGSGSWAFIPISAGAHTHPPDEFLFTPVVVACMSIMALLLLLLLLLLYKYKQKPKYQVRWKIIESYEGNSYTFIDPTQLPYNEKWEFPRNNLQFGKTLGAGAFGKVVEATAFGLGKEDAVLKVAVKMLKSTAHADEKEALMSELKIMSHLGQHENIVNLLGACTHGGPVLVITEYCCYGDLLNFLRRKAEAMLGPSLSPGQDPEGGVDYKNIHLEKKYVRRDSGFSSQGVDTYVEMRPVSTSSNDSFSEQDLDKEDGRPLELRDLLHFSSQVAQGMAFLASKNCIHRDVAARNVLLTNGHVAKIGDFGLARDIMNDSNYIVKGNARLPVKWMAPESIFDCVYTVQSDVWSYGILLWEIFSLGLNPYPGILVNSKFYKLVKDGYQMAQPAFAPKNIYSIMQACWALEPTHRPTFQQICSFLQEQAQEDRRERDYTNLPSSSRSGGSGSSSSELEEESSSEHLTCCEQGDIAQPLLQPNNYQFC

B-Raf = target: T3, B-Raf (Homo sapiens, UniProt P15056); assay: AlphaScreen kinase assay, B-Raf; conditions: read-out: IC50, activity toward kinase B-Raf
T3 construct: purchased Upstate Biotechnology
T3 sequence (P15056 whole entry): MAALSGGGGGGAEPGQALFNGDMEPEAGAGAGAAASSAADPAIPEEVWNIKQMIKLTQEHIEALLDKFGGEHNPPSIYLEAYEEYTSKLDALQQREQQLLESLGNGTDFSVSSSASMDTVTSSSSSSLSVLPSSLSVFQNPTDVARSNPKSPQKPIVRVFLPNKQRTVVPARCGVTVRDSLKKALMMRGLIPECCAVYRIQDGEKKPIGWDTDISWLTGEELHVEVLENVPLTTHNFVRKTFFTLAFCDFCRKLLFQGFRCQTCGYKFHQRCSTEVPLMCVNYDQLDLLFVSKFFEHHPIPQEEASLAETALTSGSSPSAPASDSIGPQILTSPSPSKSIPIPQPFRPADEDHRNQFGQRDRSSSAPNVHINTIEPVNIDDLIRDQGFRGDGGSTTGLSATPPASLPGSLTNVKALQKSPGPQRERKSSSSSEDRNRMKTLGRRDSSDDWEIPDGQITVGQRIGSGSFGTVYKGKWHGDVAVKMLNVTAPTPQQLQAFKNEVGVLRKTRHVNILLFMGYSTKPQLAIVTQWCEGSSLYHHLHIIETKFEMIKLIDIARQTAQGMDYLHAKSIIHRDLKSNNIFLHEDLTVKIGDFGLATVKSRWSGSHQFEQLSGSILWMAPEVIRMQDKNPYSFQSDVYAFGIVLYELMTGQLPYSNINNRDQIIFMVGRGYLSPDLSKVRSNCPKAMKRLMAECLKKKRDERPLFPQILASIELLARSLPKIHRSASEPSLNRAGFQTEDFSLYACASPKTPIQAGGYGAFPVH

B-Raf V600E = target: T4, B-Raf V600E (Homo sapiens, UniProt P15056, V600E); assay: AlphaScreen kinase assay, B-Raf V600E; conditions: read-out: IC50, activity toward kinase B-Raf V600E
T4 construct: P4254. pFastBacBD-CDC37 BRAF D437-K722-X, V600E; His6 with pFastBac HT leader (TEV site) (N); made in house; host or cells: Sf9 (baculovirus; chaperone CDC37 co-expressed)
T4 sequence (P15056 with tags, fused parts or gaps V600E): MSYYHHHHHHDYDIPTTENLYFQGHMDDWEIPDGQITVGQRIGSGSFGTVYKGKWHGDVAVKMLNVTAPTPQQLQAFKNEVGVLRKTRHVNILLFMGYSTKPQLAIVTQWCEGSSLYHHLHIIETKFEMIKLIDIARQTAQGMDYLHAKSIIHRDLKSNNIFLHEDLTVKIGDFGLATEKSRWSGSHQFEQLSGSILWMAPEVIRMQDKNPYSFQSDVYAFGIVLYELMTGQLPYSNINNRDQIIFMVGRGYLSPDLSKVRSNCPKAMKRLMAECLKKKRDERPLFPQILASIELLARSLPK

FGFR1 = target: T5, FGFR1 (Homo sapiens, UniProt P11362, C488A/C584S); assay: AlphaScreen kinase assay, FGFR1; conditions: read-out: IC50, activity toward kinase FGFR
T5 construct: P1351.pET N6 BI-PTP FGFR A458-E765-X C488A, C584S; made in house; host or cells: E. coli (PTP1B co-expressed)
T5 sequence (P11362 458-765 C488A/C584S): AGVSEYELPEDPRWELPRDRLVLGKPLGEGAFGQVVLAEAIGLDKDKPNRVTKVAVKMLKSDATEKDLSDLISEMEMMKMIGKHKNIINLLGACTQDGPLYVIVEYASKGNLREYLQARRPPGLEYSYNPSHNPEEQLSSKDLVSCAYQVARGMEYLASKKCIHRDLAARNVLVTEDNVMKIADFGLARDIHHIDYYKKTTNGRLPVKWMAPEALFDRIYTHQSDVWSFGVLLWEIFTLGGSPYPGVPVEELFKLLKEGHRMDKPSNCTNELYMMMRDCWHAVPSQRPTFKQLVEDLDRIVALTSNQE

T1 sequence (P10721 with tags, fused parts or gaps): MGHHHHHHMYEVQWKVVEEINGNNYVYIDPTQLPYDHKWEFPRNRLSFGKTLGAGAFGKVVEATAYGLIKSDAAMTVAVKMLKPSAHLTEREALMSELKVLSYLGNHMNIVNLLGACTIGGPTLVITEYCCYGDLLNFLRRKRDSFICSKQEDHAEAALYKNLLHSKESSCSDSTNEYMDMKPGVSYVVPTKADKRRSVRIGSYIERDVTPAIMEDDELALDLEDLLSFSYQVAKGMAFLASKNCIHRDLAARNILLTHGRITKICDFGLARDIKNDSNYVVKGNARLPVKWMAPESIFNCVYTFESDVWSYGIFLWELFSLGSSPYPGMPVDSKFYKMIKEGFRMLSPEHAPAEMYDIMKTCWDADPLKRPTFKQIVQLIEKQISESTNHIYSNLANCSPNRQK

## O=C(c1cccc(C(F)(F)F)c1)c1c[nH]c2ncc(-c3cccnc3)cc12 [Compound P-1410, (5-Pyridin-3-yl-1H-pyrrolo[2,3-b]pyridin-3-yl)-(3-trifluoromethyl-phenyl)-methanone]
Kit
  IC50: ≤ 10 µM
Fms
  IC50: ≤ 10 µM

## O=C(c1c(F)ccc(NS(=O)(=O)c2ccc(F)cc2)c1F)c1c[nH]c2ncccc12 [Compound P-1865, N-[2,4-Difluoro-3-(1H-pyrrolo[2,3-b]pyridine-3-carbonyl)-phenyl]-4-fluoro-benzenesulfonamide]
B-Raf
  IC50: ≤ 10 µM
B-Raf V600E
  IC50: ≤ 10 µM
Kit
  IC50: ≤ 10 µM

## Cc1ccc(S(=O)(=O)Nc2ccc(F)c(C(=O)c3c[nH]c4ncc(Cl)cc34)c2F)cc1F [Compound P-1823, N-[3-(5-Chloro-1H-pyrrolo[2,3-b]pyridine-3-carbonyl)-2,4-difluoro-phenyl]-3-fluoro-4-methyl-benzenesulfonamide]
B-Raf
  IC50: ≤ 10 µM
B-Raf V600E
  IC50: ≤ 10 µM

## OC(c1c(F)ccc(OC(F)F)c1F)c1c[nH]c2ncc(Br)cc12 (stereo not drawn) [Compound P-1525]
FGFR1
  IC50: ≤ 10 µM
Kit
  IC50: ≤ 10 µM
Fms
  IC50: ≤ 10 µM

## COc1cc(Nc2c[nH]c3ncccc23)cc(OC)c1 [Compound P-1503, (3,5-Dimethoxy-phenyl)-(1H-pyrrolo[2,3-b]pyridin-3-yl)-amine]
Kit
  IC50: ≤ 10 µM
Fms
  IC50: ≤ 10 µM

## COc1ccc(Nc2c[nH]c3ncccc23)cc1 [Compound P-1488, (4-Methoxy-phenyl)-(1H-pyrrolo[2,3-b]pyridin-3-yl)-amine]
Kit
  IC50: ≤ 10 µM
Fms
  IC50: ≤ 10 µM

## O=C(c1c(F)ccc(NS(=O)(=O)c2ccsc2)c1F)c1c[nH]c2ncc(Cl)cc12 [Compound P-1268, Thiophene-3-sulfonic acid [3-(5-chloro-1H-pyrrolo[2,3-b]pyridin-3-carbonyl)-2,4-difluoro-phenyl]-amide]
B-Raf
  IC50: ≤ 10 µM
Kit
  IC50: ≤ 10 µM

## CSc1nccc(-c2ccc(S(=O)(=O)NCc3c[nH]c4ncccc34)s2)n1 [Compound P-0854]
FGFR1
  IC50: ≤ 10 µM
Kit
  IC50: ≤ 10 µM
Fms
  IC50: ≤ 10 µM

## COc1ccc(Cc2c[nH]c3ncc(-c4ccsc4)cc23)cc1OC [Compound P-0563]
FGFR1
  IC50: ≤ 10 µM
Kit
  IC50: ≤ 10 µM
Fms
  IC50: ≤ 10 µM

## Clc1cccc(Cl)c1Cc1c[nH]c2ncccc12 [Compound P-1483, 3-(2,6-Dichloro-benzyl)-1H-pyrrolo[2,3-b]pyridine]
Kit
  IC50: ≤ 10 µM
Fms
  IC50: ≤ 10 µM

## Cc1nc(NCc2ccc(Cl)cc2)ccc1Cc1c[nH]c2ncccc12 [Compound P-0927]
B-Raf V600E
  IC50: ≤ 10 µM
FGFR1
  IC50: ≤ 10 µM
Fms
  IC50: ≤ 10 µM

## Clc1ccc(CNc2ccc(Cc3c[nH]c4ncc(Br)cc34)cn2)cc1 [Compound P-0420]
B-Raf V600E
  IC50: ≤ 10 µM
FGFR1
  IC50: ≤ 10 µM
Fms
  IC50: ≤ 10 µM

## O=C(Nc1cccc(C(=O)c2c[nH]c3ncc(-c4ccc(F)cc4)cc23)c1)Nc1cc(C(F)(F)F)ccc1Cl [Compound P-1752, 1-(2-Chloro-5-trifluoromethyl-phenyl)-3-{3-[5-(4-fluoro-phenyl)-1H-pyrrolo[2,3-b]pyridine-3-carbonyl]-phenyl}-urea]
B-Raf
  IC50: ≤ 10 µM
B-Raf V600E
  IC50: ≤ 10 µM

## Oc1cccc(Nc2ccnc3[nH]ccc23)c1 [Compound P-0980]
B-Raf
  IC50: ≤ 10 µM
B-Raf V600E
  IC50: ≤ 10 µM

## O=C(c1cccc(OC(F)F)c1)c1c[nH]c2ncc(-c3ccccc3)cc12 [Compound P-1409, (3-Difluoromethoxy-phenyl)-(5-phenyl-1H-pyrrolo[2,3-b]pyridin-3-yl)-methanone]
B-Raf V600E
  IC50: ≤ 10 µM
FGFR1
  IC50: ≤ 10 µM
Kit
  IC50: ≤ 10 µM
Fms
  IC50: ≤ 10 µM

## O=S(=O)(Nc1ccc(F)c(C(O)c2c[nH]c3ncc(Cl)cc23)c1F)c1ccc(C(F)(F)F)cc1 (stereo not drawn) [Compound P-1539]
B-Raf
  IC50: ≤ 10 µM
B-Raf V600E
  IC50: ≤ 10 µM
FGFR1
  IC50: ≤ 10 µM

## CC(C)(C)OC(=O)N(Cc1ccc(Cl)cc1)c1ccc(C(O)c2c[nH]c3ncc(-c4cccnc4)cc23)cn1 (stereo not drawn) [Compound P-0414]
B-Raf
  IC50: ≤ 10 µM
B-Raf V600E
  IC50: ≤ 10 µM

## c1ccc(Oc2ccccc2Nc2c[nH]c3ncccc23)cc1 [Compound P-1501, (2-Phenoxy-phenyl)-(1H-pyrrolo[2,3-b]pyridin-3-yl)-amine]
Kit
  IC50: ≤ 10 µM
Fms
  IC50: ≤ 10 µM

## COC(=O)c1cccc(Nc2ccnc3[nH]ccc23)c1 [Compound P-0932]
B-Raf
  IC50: ≤ 10 µM

## O=C(c1c(F)ccc(NS(=O)(=O)c2cc(F)cc(F)c2)c1F)c1c[nH]c2ncc(Cl)cc12 [Compound P-1841, N-[3-(5-chloro-1H-pyrrolo[2,3-b]pyridine-3-carbonyl)-2,4-difluoro-phenyl]-3,5-difluorobenzenesulfonamide]
B-Raf
  IC50: ≤ 10 µM
B-Raf V600E
  IC50: ≤ 10 µM

## Clc1ccc(Cc2c[nH]c3ncccc23)cc1 [Compound P-0233]
FGFR1
  IC50: ≤ 10 µM
Kit
  IC50: ≤ 10 µM
Fms
  IC50: ≤ 10 µM

## CCCS(=O)(=O)Nc1ccc(F)c(C(=O)c2c[nH]c3ncc(CCC(=O)O)cc23)c1F [Compound P-1270, 3-3-[2,6-difluoro-3-(propane-1-sulfonylamino)-benzoyl]-1H-pyrrolo[2,3-b]pyridin-5-yl-propionic acid]
B-Raf
  IC50: ≤ 10 µM
B-Raf V600E
  IC50: ≤ 10 µM
FGFR1
  IC50: ≤ 10 µM

## COc1cccc(Cc2c[nH]c3ncc(Br)cc23)c1 [Compound P-0556]
B-Raf
  IC50: ≤ 10 µM
FGFR1
  IC50: ≤ 10 µM
Kit
  IC50: ≤ 10 µM

## CS(=O)(=O)Nc1cccc(Nc2c[nH]c3ncccc23)c1 [Compound P-1498, N-[3-(1H-Pyrrolo[2,3-b]pyridin-3-ylamino)-phenyl]-methanesulfonamide]
Kit
  IC50: ≤ 10 µM
Fms
  IC50: ≤ 10 µM

## COc1cccc(Cc2c[nH]c3ncc(-c4cccc(C(F)(F)F)c4)cc23)c1F [Compound P-1325, 3-(2-Fluoro-3-methoxy-benzyl)-5-(3-trifluoromethyl-phenyl)-1H-pyrrolo[2,3-b]pyridine]
FGFR1
  IC50: ≤ 10 µM
Fms
  IC50: ≤ 10 µM

## OC(c1c(F)ccc(N(Cc2ccccc2)Cc2ccccc2)c1F)c1c[nH]c2ncc(-c3cccnc3)cc12 (stereo not drawn) [Compound P-1080]
B-Raf
  IC50: ≤ 10 µM

## c1ccc(CCc2c[nH]c3ncccc23)cc1 [Compound P-0200]
B-Raf
  IC50: ≤ 10 µM
B-Raf V600E
  IC50: ≤ 10 µM

## Fc1ccccc1Cc1c[nH]c2ncc(Br)cc12 [Compound P-1342]
FGFR1
  IC50: ≤ 10 µM
Fms
  IC50: ≤ 10 µM

## COc1cccc(C(=O)c2c[nH]c3ncc(-c4ccc(Cl)cc4)cc23)c1F [Compound P-1333, [5-(4-Chloro-phenyl)-1H-pyrrolo[2,3-b]pyridin-3-yl]-(2-fluoro-3-methoxy-phenyl)-methanone]
FGFR1
  IC50: ≤ 10 µM
Fms
  IC50: ≤ 10 µM

## COc1cccc(Cc2c[nH]c3ncc(-c4cccc(OC(F)(F)F)c4)cc23)c1F [Compound P-1328, 3-(2-Fluoro-3-methoxy-benzyl)-5-(3-trifluoromethoxy-phenyl)-1H-pyrrolo[2,3-b]pyridine]
FGFR1
  IC50: ≤ 10 µM
Fms
  IC50: ≤ 10 µM

## COc1cccc(C(=O)c2c[nH]c3ncc(-c4ccc(C#N)cc4)cc23)c1F [Compound P-1335, 4-[3-(2-Fluoro-3-methoxy-benzoyl)-1H-pyrrolo[2,3-b]pyridin-5-yl]-benzonitrile]
FGFR1
  IC50: ≤ 10 µM
Fms
  IC50: ≤ 10 µM

## CS(=O)(=O)Nc1cccc(-c2cnc3[nH]cc(C(=O)c4cc(OC(F)F)cc(OC(F)F)c4)c3c2)c1 [Compound P-1522, N-{3-[3-(3,5-Bis-difluoromethoxy-benzoyl)-1H-pyrrolo[2,3-b]pyridin-5-yl]-phenyl}-methanesulfonamide]
FGFR1
  IC50: ≤ 10 µM
Kit
  IC50: ≤ 10 µM
Fms
  IC50: ≤ 10 µM

## CCCC(=O)Nc1ccc(F)c(Cc2c[nH]c3ncc(OC)cc23)c1F [Compound P-1369]
B-Raf V600E
  IC50: ≤ 10 µM
FGFR1
  IC50: ≤ 10 µM
Kit
  IC50: ≤ 10 µM
Fms
  IC50: ≤ 10 µM

## CCCS(=O)(=O)Nc1cccc(C(=O)c2c[nH]c3ncc(Br)cc23)c1 [Compound P-1116, propane-1-sulfonic acid [3-(5-bromo-1H-pyrrolo[2,3-b]pyridin-3-carbonyl)-phenyl]-amide]
B-Raf
  IC50: ≤ 10 µM
B-Raf V600E
  IC50: ≤ 10 µM
FGFR1
  IC50: ≤ 10 µM

## CCCS(=O)(=O)Nc1ccc(F)c(C(=O)c2c[nH]c3ncc(Br)cc23)c1 [Compound P-1431]
B-Raf
  IC50: ≤ 10 µM

## COc1cc(C(OC)c2c[nH]c3ncccc23)ccc1OCc1ccc(Cl)cc1 (stereo not drawn) [Compound P-1340]
FGFR1
  IC50: ≤ 10 µM
Fms
  IC50: ≤ 10 µM

## COc1cccc(C(=O)c2c[nH]c3ncc(-c4cccc(OC(F)(F)F)c4)cc23)c1F [Compound P-1344, (2-Fluoro-3-methoxy-phenyl)-[5-(3-trifluoromethoxy-phenyl)-1H-pyrrolo[2,3-b]pyridin-3-yl]-methanone]
FGFR1
  IC50: ≤ 10 µM
Fms
  IC50: ≤ 10 µM

## FC(F)(F)Oc1cccc(Nc2c[nH]c3ncccc23)c1 [Compound P-1493, (1H-Pyrrolo[2,3-b]pyridin-3-yl)-(3-trifluoromethoxy-phenyl)-amine]
Kit
  IC50: ≤ 10 µM
Fms
  IC50: ≤ 10 µM

## COc1cccc(C(=O)c2c[nH]c3ncc(-c4cc(F)cc(F)c4)cc23)c1F [Compound P-1334, [5-(3,5-Difluoro-phenyl)-1H-pyrrolo[2,3-b]pyridin-3-yl]-(2-fluoro-3-methoxy-phenyl)-methanone]
FGFR1
  IC50: ≤ 10 µM
Fms
  IC50: ≤ 10 µM

## CCCS(=O)(=O)Nc1ccc(F)c(Cc2c[nH]c3ncc(N4CCC(C)CC4)cc23)c1F [Compound P-0984, Propane-1-sulfonic acid {2,4-difluoro-3-[5-(4-methyl-piperidin-1-yl)-1H-pyrrolo[2,3-b]pyridin-3-ylmethyl]-phenyl}-amide]
B-Raf
  IC50: ≤ 10 µM
B-Raf V600E
  IC50: ≤ 10 µM
